Like-named read-outs stand apart in the source and are kept apart here. No end group written: not given here.
Columns and labels:
[1] = Pharmacokinetics of GLP-1 compound after oral gavage with delivery agent (subcutaneous control); format: in vivo, Male Sprague Dawley rats; details: rat
Method: A solution of Val^8-Glu^22-GLP-1 was prepared by dissolving the GLP-1 compound in distilled water to yield a concentration of 7 mg/mL. The pH was slowly raised to 10.5 with 2 N NaOH, followed by incubation at room temperature for 30 minutes. A volume of 1 M Tris buffer, pH 8.0 was added to give a final buffer concentration 20 mM Tris, and the pH adjusted to pH 7.8 with 1 N or 5 N HCl. The solution was then filtered through a low protein binding […] syringe filter (Millex GV, Millipore) and the concentration of the GLP-1 compound was determined by UV spectroscopy. The solution was diluted to a final concentration of 5.5 mg/mL using 20 mM Tris buffer, pH 7.8. The peptide solution was then stored in 1.0 mL aliquots at −70° C. until used.
Final formulations were freshly prepared approximately 30 minutes to 1 hour prior to in vivo dosing by combining 4.5 mL of the delivery agent with 0.5 mL of the GLP-1 compound. The final formulations were dosed by oral gavage at 2 mL/kg (1.1 mg/kg GLP-1 compound, 300 mg/kg delivery agent) with to Male Sprague Dawley rats that were fasted for 12 hours prior to dosing. A subcutaneous dose of the GLP-1 compound alone was used as a control (0.011 mg/kg).

[2] = Stability studies of delivery agents, HPLC after three days storage; format: physicochemical; details: prepared at 150 mg/mL
Method: Stability studies were conducted for delivery agent numbers 9, 15, and 40. The delivery agents were freshly prepared as described above respectively to achieve the desired concentration of 150 mg/mL. The samples were divided into three 2 mL aliquots and stored at −20° C., 4° C., and ambient for three days. HPLC assay development and analyses were performed at the end of the storage period.

[3] = Solubility of delivery agents at desired formulation concentration; format: physicochemical; details: for solubility at the desired concentration of 150 mg/mL: 0.1 N NaOH base, further base to pH 11.5, and cosolvents
Method: Approximately 600 mg of delivery agent number 15 was weighed into Type I glass vials to which 3 mL of base (0.1 N NaOH, pH 12.7) was added to achieve a final concentration of 200 mg/mL. The pH was adjusted to 7.1 and the concentration was estimated to be 171 mg/mL. Delivery agent number 15 was then diluted to 150 mg/mL with Milli-Q® water.
Delivery agents number 40 and 9 were insoluble at the desired concentration of 150 mg/mL when followed example 1. […] Cosolvents tested included ethanol, N-methylpyrrolidone, N,N-dimethylacetamide, N,N-dimethylformamide, glycofurol, ethoxydiol, propylene glycol, polyethyleneglycol 300, and polyvinylpyrrolidone.
However, for delivery agent number 40, 150 mg was weighed into a Type I vial, to which 1 mL of Milli-Q® water was added, and the pH adjusted with 10 N NaOH.
(§1) Approximately 1.7 mL of suspending agent was added to a Type I glass vial containing 300 mg of delivery agent number 9. The preparation was cooled on ice for 3 minutes, followed by probe sonication on ice for 30 minutes using a Misonix Sonicator® Ultrasonic Processor XL ( 3/16th inch microtip). […] The formulation was then diluted to 150 mg/mL with the suspending agent.

[4] = Mean particle size of delivery agent suspension (Coulter LS Particle Size Analyzer); format: physicochemical; details: suspension in 4% w/v Klucel
Method: as §1

[5] = Peptide A 1.1 mg/kg + delivery agent 300 mg/kg, oral gavage, Tris solution
[6] = Peptide A 1.1 mg/kg + delivery agent 300 mg/kg, oral gavage, Klucel suspension
[7] = Peptide A 1.1 mg/kg + delivery agent 300 mg/kg, oral gavage, Tris suspension
[8] = Peptide A alone, no delivery agent, Tris solution, subcutaneous control 0.011 mg/kg
[9] = stored at ambient for three days
[10] = stored at −20° C. for three days
[11] = Val8-Glu22-GLP-1 1.1 mg/kg + delivery agent 300 mg/kg, oral gavage, solution

For `O=C(N[C@@H](Cc1ccccc1)C(=O)O)c1ccccc1` [Delivery agent 56], the AUC [1, 5] was 48324.4 pg·min/mL.

`Cc1cccc(C(=O)NCCCCCCCC(=O)[O-])c1[O-].[Na+].[Na+]` [Delivery agent 12] showed an AUC [1, 6] of 35239 pg·min/mL.

In the case of `O=C(O)CCCCCCCNC(=O)c1ccccn1` [Delivery agent 32], the AUC [1, 7] is reported as 130175.6 pg·min/mL.

Work on `COc1cc(O)ccc1C(=O)NCCCCCCCC(=O)O` [Delivery agent 14] yielded an AUC [1, 5] of 160066.6 pg·min/mL.

For `O=C(O)CCCCCCCNS(=O)(=O)c1ccccc1` [Delivery agent 36], the AUC [1, 5] was 42036 pg·min/mL.

`O=C(O)CCCCCCc1nnc(-c2ccccc2)o1` [Delivery agent 53] showed an AUC [1, 7] of 337360 pg·min/mL.

For `O=C(O)CCCCCCCNC(=O)/C=C/c1ccccc1F` [Delivery agent 51], the AUC [1, 5] was 10838 pg·min/mL.

In the case of `O=C(O)CCCCCCCCCNC(=O)c1ccccc1O` [Delivery agent 6], the AUC [1, 7] is reported as 37926 pg·min/mL.

Compound `O=C(O)CCCCCCCNC(=O)c1ccncc1` [Delivery agent 34] has an AUC [1, 7] of 6964.2 pg·min/mL.

`CN(c1ccc(CCCC(=O)O)cc1)S(=O)(=O)c1ccccc1` [Delivery agent 41] gave an AUC [1, 5] of 21679.1 pg·min/mL.

`O=C(O)CCCCc1nnc(-c2ccccc2O)o1` [Delivery agent 54] showed an AUC [1, 6] of 218240.8 pg·min/mL and an AUC [1, 7] of 684087.3 pg·min/mL.

For `CN(CCCCCCCC(=O)O)C(=O)c1ccccc1O` [Delivery agent 8], the AUC [1, 5] was 173548.6 pg·min/mL.

In the case of `O=C(N[C@@H](Cc1ccccc1)C(=O)O)C1CCCCC1` (stereo in doubt) [Delivery agent 46], the AUC ([1]; Peptide A 1.1 mg/kg + delivery agent 300 mg/kg, oral gavage, Klucel solution) is reported as 4789.7 pg·min/mL and the AUC [1, 5] is reported as 19304.1 pg·min/mL.

Work on HVEGTFTSDVSSYLEEQAAKEFIAWLVKGRG [A] yielded an AUC [1, 8] of 93635 pg·min/mL, a Cmax [1, 8] of 3.781 ng/mL and a Tmax [1, 8] of 10 ± 0 min. For the same compound, the AUC ([1]; male, Sprague Dawley, in vivo, sc, GLP-1 compound alone, solution, subcutaneous control 0.011 mg/kg, read-out: AUC (converted)) was 93600 pg·min/mL, the Cmax ([1]; male, Sprague Dawley, in vivo, sc, GLP-1 compound alone, solution, subcutaneous control 0.011 mg/kg, read-out: Cmax) was 3.78 ± 1.1 ng/mL and the Tmax ([1]; male, Sprague Dawley, in vivo, sc, GLP-1 compound alone, solution, subcutaneous control 0.011 mg/kg, read-out: Tmax (converted)) was 10 min.

For `CNC(=O)c1ccccc1OCCCCCCCC(=O)O` [Delivery agent 31], the AUC [1, 5] was 30164 pg·min/mL.

With `COc1ccc(C(=O)NCCCCCCCN(C)C)c(O)c1` [Delivery agent 16] the AUC [1, 6] was 19972 pg·min/mL.

In the case of `O=C(O)CCCCCCCNC(=O)c1ccccc1` [Delivery agent 2], the AUC [1, 5] is reported as 7202 pg·min/mL.

With `CC(C)C[C@H](NC(=O)C1CCCCC1)C(=O)O` [Delivery agent 45] the AUC [1, 5] was 13468.0 pg·min/mL.

For `CC(C)[C@H](NC(=O)C1CCCCC1)C(=O)O` [Delivery agent 48], the AUC [1, 5] was 6068.5 pg·min/mL.

Work on `CN(C(=O)c1ccccc1)c1ccc(CCCC(=O)[O-])cc1.[Na+]` [Delivery agent 19] yielded an AUC [1, 7] of 290106.4 pg·min/mL.

`O=C(O)CCCCCCCOc1cccc(O)c1` [Delivery agent 27] showed an AUC [1, 6] of 299137.2 pg·min/mL.

Compound `O=C(O)CCCCCCCNC(=O)C1CCCCC1` [Delivery agent 43] has an AUC [1, 7] of 7281 pg·min/mL.

Compound `O=C(O)CCCCCCCNC(=O)c1ccccc1O` [Delivery agent 5] has an AUC [1, 7] of 40984 pg·min/mL.

In the case of `O=C(N[C@H](C(=O)O)c1ccccc1)c1ccccc1` [Delivery agent 55], the AUC [1, 5] is reported as 20177.7 pg·min/mL.

`O=C(N[C@@H](Cc1ccccc1)C(=O)O)c1ccccc1O` [Delivery agent 20] showed an AUC [1, 7] of 21948 pg·min/mL.

`O=C(O)CCCc1ccc(NC(=O)C2CCCCC2)cc1` [Delivery agent 44] gave an AUC [1, 5] of 55671 pg·min/mL.

In the case of `COc1ccc(C(=O)NCCCCCCCC(=O)[O-])c([O-])c1.[Na+].[Na+]` [Delivery agent 15], the “Stability Data: delivery agent concentration” value (“Stability Data” for short) ([2]; stored at 4° C. for three days) is reported as 138.2 mg/mL, the “Stability Data” value [2, 9] is reported as 137.4 mg/mL and the “Stability Data” value [2, 10] is reported as 135.5 mg/mL. It also gave an AUC [1, 5] of 254291 pg·min/mL, an AUC ([1]; Peptide B + delivery agent, oral gavage, Tris solution) of 82656 pg·min/mL and an AUC [1, 11] of 254291 ± 129387 pg·min/mL.

In the case of `CN(CCCCCCCC(=O)O)C(=O)c1ccccc1` [Delivery agent 3], the AUC [1, 5] is reported as 237422.3 pg·min/mL.

In the case of `O=C(O)CCCCCCCOc1ccccc1O` [Delivery agent 26], the AUC [1, 5] is reported as 113480.1 pg·min/mL.

`CC(=O)c1ccccc1OCCCCCCCC(=O)[O-].[Na+]` [Delivery agent 29] gave an AUC [1, 5] of 62303 pg·min/mL.

In the case of `O=C(O)CCCCCCCNC(=O)c1cc(Cl)ccc1O` [Delivery agent 9], the “Stability Data” value ([2]; stored at 4° C. for three days) is reported as 148.6 mg/mL, the “Stability Data” value [2, 9] is reported as 146.0 mg/mL and the “Stability Data” value [2, 10] is reported as 153.2 mg/mL. For the same compound, the “solubility at the desired concentration of 150 mg/mL” value [3] was “insoluble”, the aqueous solubility ([3]; aqueous) was “aqueous insolubility” and the “mean particle size before sonication” value [4] was 48 μm. For the same compound, the “mean particle size after sonication” value ([4]; probe sonication 30 minutes, pH 7.98) was 8 μm and the AUC ([1]; Val8-Glu22-GLP-1 1.1 mg/kg + delivery agent 300 mg/kg, oral gavage, Klucel suspension) was 28144 ± 38576 pg·min/mL.

Work on `CN(C)CCCCCCNC(=O)c1ccccc1O` [Delivery agent 7] yielded an AUC [1, 5] of 204611 pg·min/mL.

Work on `O=C([O-])Cc1ccc(NC(=O)c2ccccc2O)cc1.[Na+]` [Delivery agent 21] yielded an AUC [1, 7] of 57166 pg·min/mL.

Work on `CC(=O)c1ccccc1OCCCCCCCC(=O)O` [Delivery agent 28] yielded an AUC [1, 5] of 59543 pg·min/mL and an AUC [1, 7] of 13116 pg·min/mL.

`CN(C)c1ccc(C(=O)Nc2ccc(CCCC(=O)O)cc2)cc1` [Delivery agent 24] showed an AUC [1, 5] of 21559.2 pg·min/mL.

For `COc1ccccc1C(=O)Nc1ccc(CCCC(=O)O)cc1` [Delivery agent 23], the AUC [1, 5] was 15747 pg·min/mL.

Compound `O=C(O)c1ccc(NS(=O)(=O)c2ccccc2)cc1` [Delivery agent 39] has an AUC [1, 5] of 6087 pg·min/mL.

With `O=C(O)CCCc1ccc(NS(=O)(=O)c2ccccc2)cc1` [Delivery agent 40] the “Stability Data” value ([2]; stored at 4° C. for three days) was 135.1 mg/mL, the “Stability Data” value [2, 9] was 135.3 mg/mL and the “Stability Data” value [2, 10] was 134.0 mg/mL. For the same compound, the “solubility at the desired concentration of 150 mg/mL” value [3] was “insoluble”, the solution concentration achieved ([3]; Milli-Q water, pH adjusted with 10 N NaOH, pH 8.22) was 150 mg/mL and the AUC [1, 5] was 94215 pg·min/mL. It also gave an AUC [1, 11] of 94215 ± 66732 pg·min/mL.

For `CC(=O)c1ccccc1OCc1ccc(C(=O)O)cc1` [Delivery agent 30], the AUC [1, 5] was 35259 pg·min/mL.

`O=C(O)[C@@H](NS(=O)(=O)c1ccccc1)c1ccccc1` [Delivery agent 38] showed an AUC [1, 5] of 5669 pg·min/mL.

From patent US7939494B2, “Method for administering GLP-1 molecules” (Emisphere Technologies, Inc., priority 2002, dated 2011)
